# Patent publication US10208037B2, “Toll-like receptor-7 and -8 modulatory 1H imidazoquinoline derived compounds” (The University of Kansas, priority 2011, dated 2019)
# pEC50: −log10 of the molar value.
# Target: T1, TLR7 (Homo sapiens, UniProt Q9NYK1)
# T1 construct: expressed in transfected cells; host or cells: HEK293 (HEK-Blue-7 cells)
# T1 sequence (Q9NYK1 27-1049): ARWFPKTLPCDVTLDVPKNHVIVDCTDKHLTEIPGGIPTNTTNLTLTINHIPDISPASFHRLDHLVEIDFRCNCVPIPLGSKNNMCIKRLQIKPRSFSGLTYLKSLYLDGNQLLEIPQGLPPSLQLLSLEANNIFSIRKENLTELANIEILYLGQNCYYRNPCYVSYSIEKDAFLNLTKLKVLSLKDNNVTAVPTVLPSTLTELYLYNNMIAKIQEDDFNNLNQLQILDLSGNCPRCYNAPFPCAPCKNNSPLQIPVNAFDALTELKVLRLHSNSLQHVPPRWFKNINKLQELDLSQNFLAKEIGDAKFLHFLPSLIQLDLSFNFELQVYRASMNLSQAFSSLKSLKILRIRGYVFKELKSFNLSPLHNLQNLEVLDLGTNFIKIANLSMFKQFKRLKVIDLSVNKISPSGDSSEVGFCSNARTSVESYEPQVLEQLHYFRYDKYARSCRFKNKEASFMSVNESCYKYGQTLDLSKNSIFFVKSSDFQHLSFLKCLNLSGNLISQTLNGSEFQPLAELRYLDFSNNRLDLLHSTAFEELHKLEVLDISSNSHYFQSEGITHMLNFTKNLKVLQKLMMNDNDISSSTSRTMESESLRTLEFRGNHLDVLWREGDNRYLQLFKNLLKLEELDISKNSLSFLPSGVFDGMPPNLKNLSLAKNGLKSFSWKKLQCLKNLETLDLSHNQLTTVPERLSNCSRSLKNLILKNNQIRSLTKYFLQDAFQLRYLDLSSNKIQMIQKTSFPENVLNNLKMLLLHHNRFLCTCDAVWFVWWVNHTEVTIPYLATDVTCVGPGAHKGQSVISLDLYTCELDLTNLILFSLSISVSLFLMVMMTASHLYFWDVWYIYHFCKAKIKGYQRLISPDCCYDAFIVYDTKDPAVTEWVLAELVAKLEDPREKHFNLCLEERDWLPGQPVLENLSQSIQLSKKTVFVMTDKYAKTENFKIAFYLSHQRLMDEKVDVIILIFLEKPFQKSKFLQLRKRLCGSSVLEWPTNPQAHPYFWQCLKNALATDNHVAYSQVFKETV
# Assay: TLR7 reporter gene assay (NF-κB induction, HEK-Blue-7 cells), agonism
# Type: cell-based
# Details: not given
# Text: NF-κB induction: The induction of NF-κB was quantified using HEK-Blue-7 cells and HEK-Blue-8 cells as previously described by us.^8,24 HEK293 cells were stably transfected with human TLR7 (or human TLR8), MD2, and secreted alkaline phosphatase (sAP), and were maintained in HEK-Blue™ Selection medium containing zeocin and normocin. Stable expression of secreted alkaline phosphatase (sAP) under control of NF-κB/AP-1 promoters is inducible by the TLR7 (or TLR8) agonists, and extracellular sAP in the supernatant is proportional to NF-κB induction. HEK-Blue cells were incubated at a density of […] in a volume of 80 μL/well, in 384-well, flat-bottomed, cell culture-treated microtiter plates until confluency was achieved, and subsequently graded concentrations of stimuli. sAP was assayed spectrophotometrically using an alkaline phosphatase-specific chromogen (present in HEK-detection medium as supplied by the vendor) at 620 nm.
# The induction of NF-κB was quantified using HEK-Blue-3, HEK-Blue-7 and HEK-Blue-8 cells as previously described by us.^8,24,51 HEK293 cells were stably transfected with human TLR3 (or human TLR7 or human TLR8), MD2, and secreted alkaline phosphatase (sAP), and were maintained in HEK-Blue™ Selection medium containing zeocin and normocin. Stable expression of secreted alkaline phosphatase (sAP) under control of NF-κB/AP-1 promoters is inducible by the TLR3 (or TLR7 or TLR8) agonists, and extracellular sAP in the supernatant is proportional to NF-κB induction. HEK-Blue cells were incubated at a density of ˜10^5 cells/ml in a volume of 80 μl/well, in 384-well, flat-bottomed, cell culture-treated microtiter plates until confluency was achieved, and subsequently graded concentrations of stimuli. sAP was assayed spectrophotometrically using an alkaline phosphatase-specific chromogen (present in HEK-detection medium as supplied by the vendor) at 620 nm.
row,Compound,TLR7-agonistic activity (in words)
1,"CCCCc1nc2c(N)nc3ccccc3c2n1Cc1ccc(CNC(=S)Nc2cccc(-c3c4ccc(=O)cc-4oc4cc(O)ccc34)c2C(=O)O)cc1 [Compound 26, 2-(3-(4-((4-Amino-2-butyl-1H-imidazo [4,5-c]quinolin-1-yl)methyl)benzyl)thioureido)-6-(6-hydroxy-3-oxo-3H-xanthen-9-yl)benzoic Acid]",retain TLR7 agonistic activity
2,"CCCCc1nc2c(N)nc3ccccc3c2n1Cc1ccc(CNC(=S)Nc2ccc(-c3c4ccc(=[N+](CC)CC)cc-4oc4cc(N(CC)CC)ccc34)c(C(=O)O)c2)cc1 [Compound 27, N-(9-(4-(3-(4-((4-amino-2-butyl-1H-imidazo[4,5-c]quinolin-1-yl)methyl)benzyl)thioureido)-2-carboxyphenyl)-6-(diethylamino)-3H-xanthen-3-ylidene)-N-ethylethanaminium]",retain TLR7 agonistic activity
3,CCCCc1nc2c(N)nc3ccccc3c2n1Cc1cccc2ccccc12 [Compound 6a],inactive

# Same assay, conditions: Table 1; ND = not detected; read-out: TLR7 Agonism
row,Compound,pEC50
1,"CCCCc1nc2c(N)nc3ccc(NC(=O)CCCCCCC(=O)Nc4ccc5nc(N)c6nc(CCCC)n(Cc7ccc(CN)cc7)c6c5c4)cc3c2n1Cc1ccc(CN)cc1 [Compound 55b, N^1,N^8-bis(4-amino-1-(4-(aminomethyl)benzyl)-2-butyl-1H-imidazo[4,5-c]quinolin-8-yl)octanediamide]",5.40
2,"CCCCc1nc2c(N)nc3ccc([N+](=O)[O-])cc3c2n1Cc1ccc(CN)cc1 [Compound 53a, 1-(4-(aminomethyl)benzyl)-2-butyl-8-nitro-1H-imidazo[4,5-c]quinolin-4-amine]",6.25
3,"CCCCc1nc2c(N)nc3ccccc3c2n1Cc1ccc(CNC(=O)CCCCC(=O)NCc2ccc(Cn3c(CCCC)nc4c(N)nc5ccccc5c43)cc2)cc1 [Compound 52a, N^1,N^6-bis(4-((4-amino-2-butyl-1H-imidazo[4,5-c]quinolin-1-yl)methyl)benzyl)adipamide]",6.96
4,"CCCCc1nc2c(N)nc3ccc(N)cc3c2n1Cc1ccc(CN)cc1 [Compound 54a, 1-(4-(aminomethyl)benzyl)-2-butyl-1H-imidazo[4,5-c]quinoline-4,8-diamine]",6.35
5,"CCCCc1nc2c(N)nc3ccc(NC(=O)CCCCC(=O)Nc4ccc5nc(N)c6nc(CCCC)n(Cc7ccc(CN)cc7)c6c5c4)cc3c2n1Cc1ccc(CN)cc1 [Compound 55a, N^1,N^6-bis(4-amino-1-(4-(aminomethyl)benzyl)-2-butyl-1H-imidazo[4,5-c]quinolin-8-yl) adipamide]",5.14
6,"CCCCc1nc2c(NCCCCCCCCCCNc3nc4ccccc4c4c3nc(CCCC)n4Cc3ccccc3)nc3ccccc3c2n1Cc1ccccc1 [Compound 51c, N^1,N^10-bis(1-benzyl-2-butyl-1H-imidazo[4,5-c]quinolin-4-yl)decane-1,10-diamine]",5.52
7,"CCCCc1nc2c(NCCCCCCCCCCCCNc3nc4ccccc4c4c3nc(CCCC)n4Cc3ccccc3)nc3ccccc3c2n1Cc1ccccc1 [Compound 51d, N^1,N^12-bis(1-benzyl-2-butyl-1H-imidazo[4,5-c]quinolin-4-yl)dodecane-1,12-diamine]",5.85
8,"CCCCc1nc2c(NCCCCCCCCNc3nc4ccccc4c4c3nc(CCCC)n4Cc3ccccc3)nc3ccccc3c2n1Cc1ccccc1 [Compound 51b, N^1,N-bis(1-benzyl-2-butyl-1H-imidazo[4,5-c]quinolin-4-yl)octane-1,8-diamine]",6.25
9,"CCCCc1nc2c(NCCCCNc3nc4ccccc4c4c3nc(CCCC)n4Cc3ccccc3)nc3ccccc3c2n1Cc1ccccc1 [Compound 51a, N^1,N^4-bis(1-benzyl-2-butyl-1H-imidazo[4,5-c]quinolin-4-yl)butane-1,4-diamine]",5.69
10,"CCCCc1nc2c(N)nc3ccccc3c2n1Cc1ccc(CNC(=O)CCCCCCC(=O)NCc2ccc(Cn3c(CCCC)nc4c(N)nc5ccccc5c43)cc2)cc1 [Compound 52b, N^1,N-bis(4-((4-amino-2-butyl-1H-imidazo[4,5-c]quinolin-1-yl)methyl)benzyl)octanediamide]",6.62

# Same assay, conditions: read-out: EC50 (agonistic activity)
row,Compound,pEC50
1,"CCCCc1nc2c(N)nc3ccccc3c2n1Cc1ccc(CNC(=O)CCN2C(=O)CC(SC[C@@H](NC(=O)CC[C@@H](N)C(=O)OC)C(=O)NCC(=O)OC)C2=O)cc1 (stereo partly drawn) [Compound 30b, (2R)-methyl 2-amino-5-((2S)-3-(1-(3-(4-((4-amino-2-butyl-1H-imidazo[4,5-c]quinolin-1-yl)methyl)benzylamino)-3-oxopropyl)-2,5-dioxopyrrolidin-3-ylthio)-1-(2-methoxy-2-oxoethylamino)-1-oxopropan-2-ylamino)-5-oxopentanoate]",5.66
2,"CCCCc1nc2c(N)nc3ccccc3c2n1Cc1ccc(CNC(=S)NCC(=O)NCC(=O)NCC(=O)OC)cc1 [Compound 29, Methyl 1-(4-((4-amino-2-butyl-1H-imidazo[4,5-c]quinolin-1-yl)methyl)phenyl)-6,9-dioxo-3-thioxo-2,4,7,10-tetraazadodecan-12-oate]",6.57
3,"CCCCc1nc2c(N)nc3ccccc3c2n1Cc1ccc(-c2ccccc2)cc1 [Compound 6b, 1-(Biphenyl-4-ylmethyl)-2-butyl-1H-imidazo[4,5-c]quinolin-4-amine]",6.40
